# Test results from US12427134B2, “Methods of reducing the risk of cardiovascular events in a subject with atrial fibrillation and/or atrial flutter” (priority 2019, dated 2025).
# What was measured:
# [1] = test system: patients receiving icosapent ethyl therapy; assay: Postmarket safety analysis of icosapent ethyl (VASCEPA); assay type: in vivo, human
# Excerpt: Over 320,000 patients are currently receiving icosapent ethyl (referenced interchangeably with AMR101 or VASCEPA®) therapy. With over 7 years of postmarket experience, there have been no signals necessitating a label change and no actions taken for safety reasons. Of the patients undergoing treatment with icosapent ethyl, a total of 1,204 unique adverse events (AEs) have been reported. However, there have been no signals of atrial fibrillation and flutter identified in the postmarket reports.
# [2] = test system: hypertriglyceridemic patients with cardiovascular disease or at high risk for cardiovascular disease; assay: REDUCE-IT: bleeding-related adverse events (serious and any, by category, preferred term, antithrombotic medication, fatal association); assay type: in vivo
# Excerpt: Adverse Events of Special Interest: Bleeding-related adverse events, glucose control (fasting blood glucose and HbA1c), and indicators of hepatic disorders (e.g., ALT or AST increases >3×ULN, total bilirubin increases of ≥2×ULN) were summarized separately and compared between treatment groups.
# Due to the convergence of clinical events shortly before a patient's death, direct causality of an individual bleeding event with death cannot always be determined. Bleeding-related clinical events (i.e., TEAEs, SAEs, or positively adjudicated endpoints) that occurred proximal to death (per site Investigator, CEC, or Sponsor medical assessment) are presented in Table 82 and occurred in 23 (0.6%) patients in the AMR101 group and 34 (0.8%) patients in the placebo group, with no statistically significant difference between treatment groups (p=0.18). Sponsor medical assessment classified 20 (0.5%) patients in the AMR101 group and 23 (0.6%) patients in the placebo group as having a bleeding event that likely contributed to death, with no statistically significant difference between treatment groups (p=0.76). […] None of these 57 deaths were associated with study drug per Investigator assessment; one bleeding event in each treatment group was considered possibly related to study drug per Investigator assessment.
# A summary of baseline or on-treatment anti-thrombic medication use by type in patients with serious bleeding events for the ITT population is provided in Tables 97A-97D.
structure (smiles),measurement,setting,value
"CC/C=C\C/C=C\C/C=C\C/C=C\C/C=C\CCCC(=O)OCC [AMR101, eicosapentaenoic acid ethyl ester]",Individual serious AEs,"[1]; human, in vivo",69
same,Serious and unexpected AE reports,"[1]; human, in vivo",48
same,Unique adverse events (AEs) reported,"[1]; human, in vivo","1,204"
same,Unique nonserious AEs,"[1]; human, in vivo","1,156"
same,Reports with fatal outcomes,[1]; postmarket,Four
same,"Bleeding event that did not likely contribute to death (Sponsor medical assessment), patients",[2]; Safety population,3 (0.1%) n (%)
same,"Bleeding event that likely contributed to death (Sponsor medical assessment), patients",[2]; Safety population,20 (0.5%) n (%)
same,"Bleeding-related clinical events that occurred proximal to death, patients",[2]; Safety population,23 (0.6%) n (%)
same,Fatal bleeding events,[2]; Safety population,no fatal bleeding events
same,"Bleeding Not Likely Contributing to a Fatal Event, %","[2]; Safety population N = 4089, P-value 0.06",(0.1) %
same,"Any Bleeding with a Possible Fatal Association, %","[2]; Safety population N = 4089, P-value 0.18",(0.6) %
same,"Bleeding Likely Contributing to a Fatal Event, %","[2]; Safety population N = 4089, P-value 0.76",(0.5) %
same,Fatal bleeding events,"[2]; Safety population, listed as icosapent ethyl",no fatal bleeding observed in either group
same,"Bleeding TEAEs, %","[2]; human, in vivo",(11.8) %
same,"Bleeding-related disorders (bleeding TEAEs), patients","[2]; human, in vivo",11.8%
same,"Patients with any serious bleeding TEAE, % patients","[2]; human, in vivo",(2.7) %
same,"Patients with any serious bleeding TEAE, n patients","[2]; human, in vivo",111
same,"Patients with serious CNS bleeding, % patients","[2]; human, in vivo",(0.3) %
same,"Patients with serious CNS bleeding, n patients","[2]; human, in vivo",14
same,"Patients with serious Gl bleeding, % patients","[2]; human, in vivo",(1.5) %
same,"Patients with serious Gl bleeding, n patients","[2]; human, in vivo",62
same,"Patients with serious other bleeding, % patients","[2]; human, in vivo",(1.0) %
same,"Patients with serious other bleeding, n patients","[2]; human, in vivo",41
same,"Serious GI hemorrhage, patients","[2]; human, in vivo",0.6%
same,Serious bleeding TEAE: Aortic Aneurysm Rupture,"[2]; human, in vivo",1 (0.0%) n (%)
same,Serious bleeding TEAE: Bleeding related disorders,"[2]; human, in vivo",111 (2.7%) n (%)
same,Serious bleeding TEAE: Brain Contusion,"[2]; human, in vivo",0 (0.0%) n (%)
same,Serious bleeding TEAE: Catheter Site Hemorrhage,"[2]; human, in vivo",0 (0.0%) n (%)
same,Serious bleeding TEAE: Central nervous system bleeding,"[2]; human, in vivo",14 (0.3%) n (%)
same,Serious bleeding TEAE: Cerebral Hemorrhage,"[2]; human, in vivo",0 (0.0%) n (%)
same,Serious bleeding TEAE: Cystitis Hemorrhagic,"[2]; human, in vivo",2 (0.0%) n (%)
same,Serious bleeding TEAE: Diverticulitis Intestinal Hemorrhagic,"[2]; human, in vivo",0 (0.0%) n (%)
same,Serious bleeding TEAE: Diverticulum Intestinal Hemorrhagic,"[2]; human, in vivo",3 (0.1%) n (%)
same,Serious bleeding TEAE: Duodenal Ulcer Hemorrhage,"[2]; human, in vivo",2 (0.0%) n (%)
same,Serious bleeding TEAE: Ecchymosis,"[2]; human, in vivo",1 (0.0%) n (%)
same,Serious bleeding TEAE: Epistaxis,"[2]; human, in vivo",7 (0.2%) n (%)
same,Serious bleeding TEAE: Esophageal Hemorrhage,"[2]; human, in vivo",0 (0.0%) n (%)
same,Serious bleeding TEAE: Extravasation Blood,"[2]; human, in vivo",1 (0.0%) n (%)
same,Serious bleeding TEAE: Gastric Hemorrhage,"[2]; human, in vivo",1 (0.0%) n (%)
same,Serious bleeding TEAE: Gastric Ulcer Hemorrhage,"[2]; human, in vivo",3 (0.1%) n (%)
same,Serious bleeding TEAE: Gastrointestinal Angiodysplasia Hemorrhagic,"[2]; human, in vivo",1 (0.0%) n (%)
same,Serious bleeding TEAE: Gastrointestinal bleeding,"[2]; human, in vivo",62 (1.5%) n (%)
same,Serious bleeding TEAE: Genital Hemorrhage,"[2]; human, in vivo",1 (0.0%) n (%)
same,Serious bleeding TEAE: Hemarthrosis,"[2]; human, in vivo",0 (0.0%) n (%)
same,Serious bleeding TEAE: Hematemesis,"[2]; human, in vivo",3 (0.1%) n (%)
same,Serious bleeding TEAE: Hematochezia,"[2]; human, in vivo",1 (0.0%) n (%)
same,Serious bleeding TEAE: Hematoma,"[2]; human, in vivo",1 (0.0%) n (%)
same,Serious bleeding TEAE: Hemoptysis,"[2]; human, in vivo",1 (0.0%) n (%)
same,Serious bleeding TEAE: Hemorrhagic Anemia,"[2]; human, in vivo",4 (0.1%) n (%)
same,Serious bleeding TEAE: Hemorrhagic Duodenitis,"[2]; human, in vivo",0 (0.0%) n (%)
same,Serious bleeding TEAE: Hemorrhagic Transformation Stroke,"[2]; human, in vivo",1 (0.0%) n (%)
same,Serious bleeding TEAE: Hemorrhoidal Hemorrhage,"[2]; human, in vivo",3 (0.1%) n (%)
same,Serious bleeding TEAE: Hemothorax,"[2]; human, in vivo",1 (0.0%) n (%)
same,Serious bleeding TEAE: Immune Thrombocytopenic Purpura,"[2]; human, in vivo",0 (0.0%) n (%)
same,Serious bleeding TEAE: Intra-Abdominal Hemorrhage,"[2]; human, in vivo",1 (0.0%) n (%)
same,Serious bleeding TEAE: Intracranial Hemorrhage,"[2]; human, in vivo",0 (0.0%) n (%)
same,Serious bleeding TEAE: Large Intestinal Hemorrhage,"[2]; human, in vivo",1 (0.0%) n (%)
same,Serious bleeding TEAE: Lower Gastrointestinal Hemorrhage,"[2]; human, in vivo",5 (0.1%) n (%)
same,Serious bleeding TEAE: Mallory-Weiss Syndrome,"[2]; human, in vivo",1 (0.0%) n (%)
same,Serious bleeding TEAE: Melaena,"[2]; human, in vivo",3 (0.1%) n (%)
same,Serious bleeding TEAE: Menorrhagia,"[2]; human, in vivo",1 (0.0%) n (%)
same,Serious bleeding TEAE: Mouth Hemorrhage,"[2]; human, in vivo",0 (0.0%) n (%)
same,Serious bleeding TEAE: Other bleeding,"[2]; human, in vivo",41 (1.0%) n (%)
same,Serious bleeding TEAE: Pancreatitis Hemorrhagic,"[2]; human, in vivo",1 (0.0%) n (%)
same,Serious bleeding TEAE: Peptic Ulcer Hemorrhage,"[2]; human, in vivo",1 (0.0%) n (%)
same,Serious bleeding TEAE: Pericardial Hemorrhage,"[2]; human, in vivo",0 (0.0%) n (%)
same,Serious bleeding TEAE: Post Procedural Hematoma,"[2]; human, in vivo",1 (0.0%) n (%)
same,Serious bleeding TEAE: Post Procedural Hematuria,"[2]; human, in vivo",0 (0.0%) n (%)
same,Serious bleeding TEAE: Post Procedural Hemorrhage,"[2]; human, in vivo",5 (0.1%) n (%)
same,Serious bleeding TEAE: Renal Hemorrhage,"[2]; human, in vivo",0 (0.0%) n (%)
same,Serious bleeding TEAE: Retinal Hemorrhage,"[2]; human, in vivo",1 (0.0%) n (%)
same,Serious bleeding TEAE: Retroperitoneal Hematoma,"[2]; human, in vivo",0 (0.0%) n (%)
same,Serious bleeding TEAE: Retroperitoneal Hemorrhage,"[2]; human, in vivo",1 (0.0%) n (%)
same,Serious bleeding TEAE: Shock Hemorrhagic,"[2]; human, in vivo",2 (0.0%) n (%)
same,Serious bleeding TEAE: Subarachnoid Hemorrhage,"[2]; human, in vivo",2 (0.0%) n (%)
same,Serious bleeding TEAE: Subdural Hemorrhage,"[2]; human, in vivo",2 (0.0%) n (%)
same,Serious bleeding TEAE: Traumatic Hematoma,"[2]; human, in vivo",2 (0.0%) n (%)
same,Serious bleeding TEAE: Traumatic Intracranial Hemorrhage,"[2]; human, in vivo",0 (0.0%) n (%)
same,Serious bleeding TEAE: Ulcer Hemorrhage,"[2]; human, in vivo",1 (0.0%) n (%)
same,Serious bleeding TEAE: Upper Gastrointestinal Hemorrhage,"[2]; human, in vivo",3 (0.1%) n (%)
same,Serious bleeding TEAE: Urinary Bladder Hemorrhage,"[2]; human, in vivo",1 (0.0%) n (%)
same,"Serious bleeding TEAEs, %","[2]; human, in vivo",(2.7) %
same,"Serious bleeding TEAEs, patients","[2]; human, in vivo",2.7%
same,"Serious bleeding adverse event - Epistaxis, % patients","[2]; human, in vivo",(0.2) %
same,"Serious bleeding adverse event - Epistaxis, n patients","[2]; human, in vivo",7
same,"Serious bleeding adverse event - Gl hemorrhage, % patients","[2]; human, in vivo",(0.6) %
same,"Serious bleeding adverse event - Gl hemorrhage, n patients","[2]; human, in vivo",26
same,"Serious bleeding adverse event - Hematuria, % patients","[2]; human, in vivo",(0.2) %
same,"Serious bleeding adverse event - Hematuria, n patients","[2]; human, in vivo",8
same,"Serious bleeding adverse event - Rectal hemorrhage, % patients","[2]; human, in vivo",(0.2) %
same,"Serious bleeding adverse event - Rectal hemorrhage, n patients","[2]; human, in vivo",10
same,"Serious bleeding adverse event - Subdural hematoma, % patients","[2]; human, in vivo",(0.2) %
same,"Serious bleeding adverse event - Subdural hematoma, n patients","[2]; human, in vivo",9
same,"Serious central nervous system bleeding, patients","[2]; human, in vivo",0.3%
same,"Serious gastrointestinal bleeding, patients","[2]; human, in vivo",1.5%
same,"TEAE of special interest: Bleeding-related disorders, %","[2]; human, in vivo",(11.8) %
same,"TEAE of special interest: Central nervous system bleeding, %","[2]; human, in vivo",(0.5) %
same,"TEAE of special interest: Gastrointestinal bleeding, %","[2]; human, in vivo",(3.1) %
same,"TEAE of special interest: Other bleeding, %","[2]; human, in vivo",(9.2) %
same,Serious bleeding TEAE: Gastrointestinal Hemorrhage,"[2]; human, in vivo, 4.9 years",26 (0.6%) n (%)
same,Serious bleeding TEAE: Hematuria,"[2]; human, in vivo, 4.9 years",8 (0.2%) n (%)
same,Serious bleeding TEAE: Rectal Hemorrhage,"[2]; human, in vivo, 4.9 years",10 (0.2%) n (%)
same,Serious bleeding TEAE: Subdural Hematoma,"[2]; human, in vivo, 4.9 years",9 (0.2%) n (%)
same,Patients with any bleeding/at risk,"[2]; on treatment: Clopidogrel, ITT",124/951
